Reference: patent US11014915B2, “Selective estrogen receptor degrader” (SUN PHARMA ADVANCED RESEARCH COMPANY LIMITED, priority 2019, dated 2021)

Legend:
[1] = target: T1, ER-α in MCF-7 cells harboring mutant ER (WT/Y537S) (Homo sapiens, UniProt P03372, Y537S); assay: ER-α degradation (SERD) assay, MCF-7 Y537S; assay type: cell-based; details: for DC50: MCF-7 Y537S, 4 days, read-out: ER-α degradation assay Y537S IC50
T1 construct: MCF-7 cells harboring mutant ER (WT/D538G and WT/Y537S); endogenous in cells; host or cells: MCF-7 Y537S (WT/Y537S)
T1 sequence (P03372 1-595 Y537S): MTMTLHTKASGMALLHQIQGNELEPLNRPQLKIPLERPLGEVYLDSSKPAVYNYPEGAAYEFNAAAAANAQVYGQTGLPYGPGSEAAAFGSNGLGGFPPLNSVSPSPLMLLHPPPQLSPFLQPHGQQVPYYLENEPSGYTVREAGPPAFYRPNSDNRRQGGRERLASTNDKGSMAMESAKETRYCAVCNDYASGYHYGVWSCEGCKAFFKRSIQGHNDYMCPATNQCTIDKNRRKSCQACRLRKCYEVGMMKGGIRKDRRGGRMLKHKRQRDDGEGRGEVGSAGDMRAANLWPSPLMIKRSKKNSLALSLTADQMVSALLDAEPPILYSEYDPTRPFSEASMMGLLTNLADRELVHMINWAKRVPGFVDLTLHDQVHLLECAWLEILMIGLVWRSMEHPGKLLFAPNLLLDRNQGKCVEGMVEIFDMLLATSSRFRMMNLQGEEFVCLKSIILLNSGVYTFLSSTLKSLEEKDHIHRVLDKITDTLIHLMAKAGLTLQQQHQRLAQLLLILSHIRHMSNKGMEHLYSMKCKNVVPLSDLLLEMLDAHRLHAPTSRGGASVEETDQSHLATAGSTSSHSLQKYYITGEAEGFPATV
Description: Selective Estrogen Receptor Degradation (SERD) Assay:
The SERD activity for the test compounds was evaluated in MCF-7 cells harboring ER wild type, and MCF-7 cells harboring mutant ER (WT/D538G and WT/Y537S). Briefly, cells were plated in phenol red free RPMI1640 medium supplemented with 5% charcoal stripped fetal bovine serum. The seeding density was 40000 cells/well for MCF-7 WT and MCF-7 D538G and 50000 cells/well MCF-7 Y537S in a 48-well plate. Following overnight incubation, the cells were treated with varying concentrations of test compounds (final concentration: 1000 nM to 0.01 nM, 0.1% DMSO) for 4 days. The cells were lysed using PBS supplemented with 1 mM EDTA, 0.5% Triton X-100, 5 mM NaF, 6 M urea, and 1× Protease inhibitor cocktail. The lysate was analyzed for ER alpha protein using western blot. For the western blot, the cell lysate (12.5-40 μg total protein) was resolved on a 10% SDS PAGE and transferred onto a PVDF membrane. The blots were blocked using 5% skim milk powder in 0.1% PBS-T for 1 hour at room temperature, followed by co-incubation with rabbit anti-human β-actin antibody and rabbit anti-human ERα antibody for 2 hours at room temperature. The blots were subsequently probed with anti-rabbit IgG-HRP conjugate as secondary antibody for 1 hour at room temperature. The blots were developed by using West Pico Super Signal Chemiluminescence substrate and the bands were processed for densitometry analysis using Image Lab software (BioRad version 6.0.0). ERα band intensity was normalized to that housekeeping protein for respective samples. The % ER remaining was calculated by normalizing against the vehicle control (as 100%).

[2] = test system: subcutaneous MCF7-Y537S xenografts; assay: In-vivo efficacy in MCF7-Y537S mice xenografts; design: species or system female athymic nude mice
Description: In-Vivo Efficacy of Compound of Formula I and Compound of Formula Ia: […]
The efficacy of the compound of Formula I and the compound of Formula Ia were evaluated in female athymic nude mice harboring subcutaneous MCF7-Y537S xenografts. Dose formulations of the compound of Formula I and the compound of Formula Ia were prepared in Tween 80 (0.4% v/v of the total volume of suspension) in 0.5% w/v carboxymethylcellulose (CMC) and administered once daily orally for 28 days. Two perpendicular diameters of tumor were measured with digital Vernier caliper. Tumor volume (V) was calculated using the following equation: V=(a^2×b)/2, where “a” is the width of the tumor (small diameter), and “b” the length (large diameter), both in millimeters. Tumors were monitored twice weekly and compared with a vehicle treated group.

[3] = test system: MCF-7 cells harboring mutant ER (WT/Y537S); assay: MCF-7 cell growth inhibition assay, Y537S; assay type: cell-based; details: Homo sapiens, MCF7, 168 h; MCF-7 Y537S, seven-day incubation
Description: MCF-7 Cell Growth Inhibition Assay:
The anti-proliferative activity of the test compounds were evaluated in a growth inhibition assay. Briefly, MCF-7 cells harboring ER wild type (Wt), and MCF-7 cells harboring mutant ER (WT/D538G and WT/Y537S) were seeded at a density of 1000 cells/well in 96-well plate in phenol red free RPMI1640 medium supplemented with 10% charcoal stripped fetal bovine serum. The cells were incubated overnight at 37° C. and 5% CO2 followed by the addition of varying concentrations of the test compounds in DMSO. Final concentration of DMSO in the well was 0.5%. Following a seven-day incubation of cells with the test compounds, cell viability was assessed using a Prestoblue™ reagent. The percent inhibition of cell proliferation was calculated by normalizing the cell viability using a vehicle control as 0% inhibition of proliferation.

Structure (SMILES) | DC50 [1] | % Tumor growth inhibition compared to vehicle group after 28 days ([2]; 50 mg/kg, p.o., 28 days, once daily) | Tumor growth compared to the vehicle group (in words) ([2]; once daily orally for 28 days) | IC50 [3] | ER-α degradation in mutated cell line (in words) ([1]; Y537S)
CC1=C(c2cc(F)cc(F)c2)[C@H](c2ccc(/C=C/CN3CC(CF)C3)cc2)Oc2cc(O)ccc21 [Formula Ia, (2S)-3-(3,5-difluorophenyl)-2-[4-[(E)-3-[3-(fluoromethyl)azetidin-1-yl]prop-1-enyl]phenyl]-4-methyl-2H-chromen-7-ol] | 19.6 nM | 56% | significant reduction in the tumor growth | 6 nM | 
CC1=C(c2cc(F)cc(F)c2)[C@@H](c2ccc(/C=C/CN3CC(CF)C3)cc2)Oc2cc(O)ccc21 [Formula Ib, (2R)-3-(3,5-difluorophenyl)-2-[4-[(E)-3-[3-(fluoromethyl)azetidin-1-yl]prop-1-enyl]phenyl]-4-methyl-2H-chromen-7-ol] | > 1000 nM |  |  | 1000 nM | no ER-α degradation
